Results published in ChEMBL document CHEMBL1132023, “Synthesis and anticancer evaluation of certain alpha-methylene-gamma-(4-substituted phenyl)-gamma-butyrolactone bearing thymine, uracil, and 5-bromouracil” (1999).

Experiments:
Type in all cases: functional
Conditions in all cases: Homo sapiens
[1] = tested on: RPMI-8226; test: In vitro inhibition of Leukemia RPMI-8226 cell lines
[2] = tested on: ACHN; test: In vitro inhibition of Renal Cancer ACHN cell lines
[3] = tested on: MDA-MB-435; test: In vitro inhibition of Breast Cancer MDA-MB-435 cell lines
[4] = tested on: TK-10; test: In vitro inhibition of Renal Cancer TK-10 cell lines
[5] = tested on: NCI-H460; test: In vitro inhibition of Non-Small Cell Lung Cancer NCI-H460 cell lines
[6] = tested on: SK-OV-3; test: In vitro inhibition of Ovarian Cancer SK-OV-3 cell lines
[7] = tested on: U-251; test: In vitro inhibition of CNS Cancer U-251 cell lines
[8] = tested on: LOX IMVI; test: In vitro inhibition of Melanoma LOX IM VI cell lines
[9] = tested on: Hs-578T; test: In vitro inhibition of Breast Cancer Hs 578.T cell lines
[10] = tested on: SNB-19; test: In vitro inhibition of CNS Cancer SNB-19 cell lines(least sensitive cell)
[11] = tested on: HL-60; test: In vitro inhibition of Leukemia HL-60(TB) cell lines(most sensitive cell)
[12] = tested on: COLO 205; test: In vitro inhibition of Colon Cancer COLO 205 cell lines
[13] = tested on: DU-145; test: In vitro inhibition of Prostate Cancer DU-145 cell lines
[14] = tested on: IGROV-1; test: In vitro inhibition of Ovarian Cancer IGROV1 cell lines
[15] = tested on: SW-620; test: In vitro inhibition of Colon Cancer SW-620 cell lines
[16] = tested on: PC-3; test: In vitro inhibition of Prostate Cancer PC-3 cell lines
[17] = tested on: Malme-3M; test: In vitro inhibition of Melanoma MALME-3M cell lines
[18] = tested on: A549; test: In vitro inhibition of Non-Small Cell Lung Cancer A549/ATCC cell lines
[19] = tested on: Hs-578T; test: In vitro inhibition of Breast Cancer Hs 578.T cell lines( least sensitive cell)
[20] = tested on: COLO 205; test: In vitro inhibition of Colon Cancer COLO 205 cell lines( most sensitive cell)
[21] = tested on: SNB-19; test: In vitro inhibition of CNS Cancer SNB-19 cell lines
[22] = tested on: HL-60; test: In vitro inhibition of Leukemia HL-60(TB) cell lines
[23] = tested on: NCI-H460; test: In vitro inhibition of Non-Small Cell Lung Cancer NCI-H460 cell lines(least sensitive cell)
[24] = tested on: RPMI-8226; test: In vitro inhibition of Leukemia RPMI-8226 cell lines( most sensitive cell)
[25] = tested on: HL-60; test: In vitro inhibition of Leukemia HL-60(TB) cell lines ( most sensitive cell)
[26] = tested on: HL-60; test: In vitro inhibition of Leukemia HL-60(TB) cell lines( most sensitive cell)
[27] = tested on: SNB-19; test: In vitro inhibition of CNS Cancer SNB-19 cell lines( least sensitive cell)
[28] = tested on: Hs-578T; test: In vitro inhibition of Breast Cancer Hs 578.T cell lines(The least sensitive cell)
[29] = tested on: NCI-H460; test: In vitro inhibition of Non-Small Cell Lung Cancer NCI-H460 cell lines( least sensitive cell)

## C=C1CC(Cn2cc(Br)c(=O)[nH]c2=O)(c2ccc(-c3ccccc3)cc2)OC1=O (configuration not stated)
[1]
  GI50: 0.129 µM
[2]
  GI50: 2.51 µM
[3]
  GI50: 1 µM
[4]
  GI50: 0.126 µM
[5]
  GI50: 10.5 µM
[6]
  GI50: 6.03 µM
[7]
  GI50: 5.75 µM
[8]
  GI50: 0.851 µM
[9]
  GI50: 4.79 µM
[10]
  GI50: 14.5 µM
[11]
  GI50: 0.0457 µM
[12]
  GI50: 0.355 µM
[13]
  GI50: 1.07 µM
[14]
  GI50: 1.2 µM
[15]
  GI50: 0.282 µM
[16]
  GI50: 1.26 µM
[17]
  GI50: 1.55 µM
[18]
  GI50: 6.17 µM

## C=C1CC(Cn2ccc(=O)[nH]c2=O)(c2ccc(F)cc2)OC1=O (configuration not stated)
[1]
  GI50: 5.37 µM
[2]
  GI50: 13.2 µM
[19]
  GI50: 20.4 µM
[3]
  GI50: 10.7 µM
[4]
  GI50: 14.5 µM
[5]
  GI50: 13.8 µM
[6]
  GI50: 15.1 µM
[7]
  GI50: 15.5 µM
[20]
  GI50: 3.02 µM
[8]
  GI50: 6.03 µM
[21]
  GI50: 14.8 µM
[22]
  GI50: 3.72 µM
[13]
  GI50: 15.1 µM
[14]
  GI50: 13.2 µM
[15]
  GI50: 4.9 µM
[16]
  GI50: 16.2 µM
[17]
  GI50: 7.59 µM
[18]
  GI50: 17 µM

## C=C1CC(Cn2cc(Br)c(=O)[nH]c2=O)(c2ccc(F)cc2)OC1=O (configuration not stated)
[2]
  GI50: 4.47 µM
[3]
  GI50: 4.07 µM
[4]
  GI50: 17 µM
[6]
  GI50: 16.6 µM
[23]
  GI50: 20.9 µM
[7]
  GI50: 8.51 µM
[8]
  GI50: 3.39 µM
[9]
  GI50: 14.5 µM
[21]
  GI50: 19.5 µM
[24]
  GI50: 0.468 µM
[12]
  GI50: 2.24 µM
[22]
  GI50: 1.74 µM
[13]
  GI50: 16.2 µM
[14]
  GI50: 12.9 µM
[15]
  GI50: 2.75 µM
[16]
  GI50: 11.7 µM
[17]
  GI50: 4.57 µM

## C=C1CC(Cn2cc(C)c(=O)[nH]c2=O)(c2ccc(-c3ccccc3)cc2)OC1=O (configuration not stated)
[1]
  GI50: 0.646 µM
[2]
  GI50: 7.59 µM
[19]
  GI50: 25.7 µM
[3]
  GI50: 2 µM
[4]
  GI50: 1.58 µM
[5]
  GI50: 13.8 µM
[6]
  GI50: 13.5 µM
[7]
  GI50: 13.2 µM
[8]
  GI50: 1.74 µM
[21]
  GI50: 16.6 µM
[12]
  GI50: 1.41 µM
[13]
  GI50: 1.66 µM
[14]
  GI50: 1.91 µM
[15]
  GI50: 1.02 µM
[16]
  GI50: 2.51 µM
[25]
  GI50: 0.234 µM
[17]
  GI50: 3.72 µM
[18]
  GI50: 12.3 µM

## C=C1CC(Cn2ccc(=O)[nH]c2=O)(c2ccc(-c3ccccc3)cc2)OC1=O (configuration not stated)
[1]
  GI50: 0.214 µM
[2]
  GI50: 2.29 µM
[3]
  GI50: 0.49 µM
[4]
  GI50: 0.955 µM
[5]
  GI50: 10.2 µM
[6]
  GI50: 10.5 µM
[7]
  GI50: 10 µM
[8]
  GI50: 0.209 µM
[9]
  GI50: 7.41 µM
[12]
  GI50: 0.174 µM
[13]
  GI50: 0.2 µM
[14]
  GI50: 0.708 µM
[26]
  GI50: 0.105 µM
[15]
  GI50: 0.17 µM
[16]
  GI50: 1.32 µM
[27]
  GI50: 17.4 µM
[17]
  GI50: 1.58 µM
[18]
  GI50: 10.7 µM

## C=C1CC(Cn2cc(C)c(=O)[nH]c2=O)(c2ccc(F)cc2)OC1=O (configuration not stated)
[1]
  GI50: 3.55 µM
[2]
  GI50: 3.55 µM
[3]
  GI50: 5.62 µM
[4]
  GI50: 4.57 µM
[28]
  GI50: 19.1 µM
[6]
  GI50: 16.2 µM
[29]
  GI50: 19.1 µM
[7]
  GI50: 11.5 µM
[20]
  GI50: 1.58 µM
[8]
  GI50: 4.27 µM
[21]
  GI50: 14.8 µM
[22]
  GI50: 2.57 µM
[13]
  GI50: 7.59 µM
[14]
  GI50: 5.5 µM
[15]
  GI50: 3.63 µM
[16]
  GI50: 9.12 µM
[17]
  GI50: 3.55 µM
[18]
  GI50: 17.8 µM
